From the supplement of paper PMC11451515

Tested on: NOMO1
Test: cell viability relative to DMSO control; higher = less cytotoxic
Conditions: 48 h
In short: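 Viability was expressed as a per-plate percentage of DMSO wells, with cell-free wells as background. Leukemia cells (NOMO1 or SEM at 500 cells/well, P12-Ichikawa at 1000 cells/well) were adapted for at least four passages in each medium and seeded in 1536-well plates (5 μl). Library compounds in DMSO were pin-dosed over an 11-point threefold series from 47 μM to 0.79 nM, and CellTiter-Glo One luminescence was read after 48 h at 37°C.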

[1] = HPLM + 10% dialyzed FBS, 0.000781 µM
[2] = HPLM + 10% dialyzed FBS, 0.00234 µM
[3] = HPLM + 10% dialyzed FBS, 0.00702 µM
[4] = HPLM + 10% dialyzed FBS, 0.0211 µM
[5] = HPLM + 10% dialyzed FBS, 0.0632 µM
[6] = HPLM + 10% dialyzed FBS, 0.19 µM
[7] = HPLM + 10% dialyzed FBS, 0.569 µM
[8] = HPLM + 10% dialyzed FBS, 1.71 µM
[9] = HPLM + 10% dialyzed FBS, 5.12 µM
[10] = HPLM + 10% dialyzed FBS, 15.4 µM
[11] = HPLM + 10% dialyzed FBS, 46.1 µM
[12] = RPMI 5 mM glucose + 10% FBS, 0.000781 µM
[13] = RPMI 5 mM glucose + 10% FBS, 0.00234 µM
[14] = RPMI 5 mM glucose + 10% FBS, 0.00702 µM
[15] = RPMI 5 mM glucose + 10% FBS, 0.0211 µM
[16] = RPMI 5 mM glucose + 10% FBS, 0.0632 µM
[17] = RPMI 5 mM glucose + 10% FBS, 0.19 µM
[18] = RPMI 5 mM glucose + 10% FBS, 0.569 µM
[19] = RPMI 5 mM glucose + 10% FBS, 1.71 µM
[20] = RPMI 5 mM glucose + 10% FBS, 5.12 µM
[21] = RPMI 5 mM glucose + 10% FBS, 15.4 µM
[22] = RPMI 5 mM glucose + 10% FBS, 46.1 µM
[23] = RPMI 5 mM glucose + 10% dialyzed FBS, 0.000781 µM
[24] = RPMI 5 mM glucose + 10% dialyzed FBS, 0.00234 µM
[25] = RPMI 5 mM glucose + 10% dialyzed FBS, 0.00702 µM
[26] = RPMI 5 mM glucose + 10% dialyzed FBS, 0.0211 µM
[27] = RPMI 5 mM glucose + 10% dialyzed FBS, 0.0632 µM
[28] = RPMI 5 mM glucose + 10% dialyzed FBS, 0.19 µM
[29] = RPMI 5 mM glucose + 10% dialyzed FBS, 0.569 µM
[30] = RPMI 5 mM glucose + 10% dialyzed FBS, 1.71 µM
[31] = RPMI 5 mM glucose + 10% dialyzed FBS, 5.12 µM
[32] = RPMI 5 mM glucose + 10% dialyzed FBS, 15.4 µM
[33] = RPMI 5 mM glucose + 10% dialyzed FBS, 46.1 µM

| Structure (SMILES) | cell viability [1] [%] | cell viability [2] [%] | cell viability [3] [%] | cell viability [4] [%] | cell viability [5] [%] | cell viability [6] [%] | cell viability [7] [%] | cell viability [8] [%] | cell viability [9] [%] | cell viability [10] [%] | cell viability [11] [%] | cell viability [12] [%] | cell viability [13] [%] | cell viability [14] [%] | cell viability [15] [%] | cell viability [16] [%] | cell viability [17] [%] | cell viability [18] [%] | cell viability [19] [%] | cell viability [20] [%] | cell viability [21] [%] | cell viability [22] [%] | cell viability [23] [%] | cell viability [24] [%] | cell viability [25] [%] | cell viability [26] [%] | cell viability [27] [%] | cell viability [28] [%] | cell viability [29] [%] | cell viability [30] [%] | cell viability [31] [%] | cell viability [32] [%] | cell viability [33] [%] |
| --- | --- | --- | --- | --- | --- | --- | --- | --- | --- | --- | --- | --- | --- | --- | --- | --- | --- | --- | --- | --- | --- | --- | --- | --- | --- | --- | --- | --- | --- | --- | --- | --- | --- |
| C[C@@H]\1CC(=O)N\N=C1C2=CC=C(NN=C(C#N)C#N)C=C2 | 90.8 | 89.5 | 107 | 95.5 | 99.9 | 90.2 | 102 | 87.6 | 88.5 | 86.8 | 4.87 | 93.9 | 87.6 | 92.6 | 90.6 | 87.9 | 96.7 | 85.7 | 97.5 | 89.2 | 80 | 7.6 | 85.3 | 94.7 | 93.4 | 90.7 | 95.3 | 92.6 | 96.3 | 89 | 87.1 | 83.2 | 9.26 |
| CC(N)C12CC3CC(CC(C3)C1)C2 (centres undefined) | 99.4 | 120 | 116 | 113 | 117 | 104 | 126 | 109 | 104 | 85.1 | 80.2 | 104 | 118 | 122 | 111 | 108 | 116 | 126 | 112 | 112 | 53.4 | 49.2 |  |  |  |  |  |  |  |  |  |  |  |
| N#Cc1c(NC(=O)c2cccc3ccccc23)sc2c1CCCC2 |  |  |  |  |  |  |  |  |  |  |  | 120 | 142 | 118 | 128 | 139 | 134 | 127 | 25.4 | 26.1 | 21.7 | 21 |  |  |  |  |  |  |  |  |  |  |  |
| Cc1c(NC(=O)OC[C@@H]2COCCN2)cn2ncnc(Nc3ccc4c(cnn4Cc4cccc(F)c4)c3)c12 | 67.5 | 75.4 | 80.3 | 90.6 | 93.2 | 102 | 92.8 | 76 | 88.7 | 60.5 | 18.6 | 97.2 | 86.6 | 85.2 | 93.5 | 91.6 | 89.5 | 89.9 | 92.7 | 84.6 | 74.9 | 40 | 77.6 | 80.4 | 86.3 | 85.8 | 88.3 | 86.5 | 89 | 91.7 | 89.4 | 80.3 | 37.5 |
